According to the supplement of paper PMC13380429:

Assays:
Details in all cases: 72 h
Vero E6 [1] = experiment: relative viability EC50 (midpoint between 100% and the lowest measured viability); higher = less toxic
U2OS [2] = experiment: as above
Caco-2 [3] = experiment: as above
HepG2 [4] = experiment: as above
Vero E6 [5] = experiment: cell viability relative to DMSO; higher = less toxic
U2OS [6] = experiment: as above
Caco-2 [7] = experiment: as above
HepG2 [8] = experiment: as above
Vero E6 [9] = experiment: drug sensitivity score (DSS) for viability; higher = more toxic; extreme values may be limits of the assay
U2OS [10] = experiment: as above
Caco-2 [11] = experiment: as above
HepG2 [12] = experiment: as above
Calu-3 [13] = experiment: cell viability relative to DMSO; higher = less toxic
Calu-3 [14] = experiment: drug sensitivity score (DSS) for viability; higher = more toxic; extreme values may be limits of the assay

Compound	relative viability EC50 (Vero E6 [1])	relative viability EC50 (U2OS [2])	relative viability EC50 (Caco-2 [3])	relative viability EC50 (HepG2 [4])	cell viability (Vero E6 [5]; 1 nM)	cell viability (Vero E6 [5]; 10 nM)	cell viability (Vero E6 [5]; 100 nM)	cell viability (Vero E6 [5]; 1000 nM)	cell viability (Vero E6 [5]; 10000 nM)	cell viability (U2OS [6]; 1 nM)	cell viability (U2OS [6]; 10 nM)	cell viability (U2OS [6]; 100 nM)	cell viability (U2OS [6]; 1000 nM)	cell viability (U2OS [6]; 10000 nM)	cell viability (Caco-2 [7]; 1 nM)	cell viability (Caco-2 [7]; 10 nM)	cell viability (Caco-2 [7]; 100 nM)	cell viability (Caco-2 [7]; 1000 nM)	cell viability (Caco-2 [7]; 10000 nM)	cell viability (HepG2 [8]; 1 nM)	cell viability (HepG2 [8]; 10 nM)	cell viability (HepG2 [8]; 100 nM)	cell viability (HepG2 [8]; 1000 nM)	cell viability (HepG2 [8]; 10000 nM)	drug sensitivity score (Vero E6 [9])	drug sensitivity score (U2OS [10])	drug sensitivity score (Caco-2 [11])	drug sensitivity score (HepG2 [12])	cell viability (Calu-3 [13]; 1 nM)	cell viability (Calu-3 [13]; 10 nM)	cell viability (Calu-3 [13]; 100 nM)	cell viability (Calu-3 [13]; 1000 nM)	cell viability (Calu-3 [13]; 10000 nM)	drug sensitivity score (Calu-3 [14])
Cc1ccc2c(c1)Cc1c(C(=O)NC3CCCCC3)nn(-c3ccc(Cl)cc3Cl)c1-2 [GP2a]	> 10 µM	> 10 µM	> 10 µM	> 10 µM	99.5%	96.2%	99.8%	100%	100%	95.8%	99.4%	97.4%	105%	102%	91.8%	89.6%	97.3%	95.4%	91.7%	100%	102%	99%	88.9%	99.7%	0	0	0	0						
CC1=NN(c2ccc(C)c(C)c2)C(=O)/C1=N\Nc1cccc(-c2cccc(C(=O)O)c2)c1O [eltrombopag]	> 10 µM		> 10 µM	2.71 µM	97.6%	93.5%	91.9%	90.7%	82.9%	95.6%	102%	100%	101%	71.1%	93.5%	89.8%	93.5%	97.9%	82.1%	97.4%	92%	105%	96.8%	44.5%	0.8	1.2	0	3.4	114%	102%	100%	96.7%	74.3%	1.5
c1ccc(C[C@H](c2ccccc2)N2CCCCC2)cc1 (racemic) [1-(1,2-diphenylethyl)piperidine-(+/-)]	> 10 µM	> 10 µM	> 10 µM	> 10 µM	92.6%	97.7%	92.2%	97.1%	102%	104%	93.8%	98.7%	98.9%	105%	91.2%	93.9%	101%	100%	103%	92.9%	103%	96.5%	100%	86.8%	0	0	0	0.1						
CNC(=O)Oc1cccc2ccccc12 [carbaril]																									0	0		0						0
CCN1CCCC1CNC(=O)c1cc(S(N)(=O)=O)ccc1OC (configuration not stated) [sulpiride]																									0	0		0						0
COc1ccccc1N1CCN(CCCCNC(=O)c2ccc3ccccc3c2)CC1 [BP-897]																									0	0		0						0.8
O=[N+]([O-])c1ccc(O)c([N+](=O)[O-])c1 [2,4-dinitrophenol]	> 10 µM	> 10 µM		> 10 µM	94%	103%	100%	92.9%	99.1%	96.2%	102%	106%	105%	97%	89.3%	96.8%	82.7%	98.8%	73.4%	100%	89.5%	110%	106%	103%	0	0	1.8	0						
O=C(CCCCCCC(=O)NO)NO [SBHA]	> 10 µM	> 10 µM	> 10 µM	2.27 µM	106%	99.8%	99.6%	102%	80.4%	104%	96.3%	100%	98.2%	81.7%	95.6%	99.4%	109%	98.1%	86.7%	104%	96.9%	105%	94.4%	48.7%	0.4	0.7	0.2	3.6	104%	95.9%	86.4%	90.1%	72.6%	2.4
CCCOc1ccc2[nH]c(NC(=O)OC)nc2c1 [oxibendazole]	0.54 µM	3.4 µM			95.1%	96.3%	90.2%	63.8%	41.9%	101%	95.2%	101%	102%	47.5%	94.8%	93.7%	107%	96.4%	63.1%	91.1%	95.8%	94.6%	103%	54.4%	7.9	2.6	2.4	2.1	102%	97.2%	97.1%	97.8%	63%	2.1
O=C(O)COC(=O)Cc1ccccc1Nc1c(Cl)cccc1Cl [aceclofenac]																									0	0		0						0
CNCc1ccc(-c2[nH]c3cc(F)cc4c3c2CCNC4=O)cc1 [rucaparib]	> 10 µM	> 10 µM	> 10 µM	> 10 µM	96.4%	99.9%	96.1%	93.7%	93.3%	101%	93.4%	98.7%	102%	106%	94.7%	91.2%	97.4%	94.5%	89.6%	98.8%	109%	95.5%	92%	78.7%	0	0	0	1.1						
CC(C)c1ccccc1S(=O)(=O)c1cc(N)c2ncccc2c1[N+](=O)[O-]	> 10 µM	> 10 µM	> 10 µM	> 10 µM	98%	103%	107%	102%	100%	99.7%	102%	96.3%	98.5%	93.7%	98.7%	102%	99.1%	97.3%	89.8%	100%	95.8%	100%	89.9%	110%	0	0	0	0						
C=C[C@H]1CN2CC[C@H]1C[C@@H]2[C@@H](O)c1ccnc2ccc(OC)cc12 [quinidine]																									0	0		0						0
COc1cc(C(=O)N2CCC(N3CCN(C)CC3)CC2)ccc1Nc1ncc2c(n1)N(C)c1ccccc1C(=O)N2C [LRRK2-IN-1]	2.64 µM			3.42 µM	99.5%	100%	94%	94.3%	13.5%	101%	95.9%	98.5%	90.6%	50.1%	96%	87.2%	98.8%	91.7%	67.8%	99.4%	99.4%	98.8%	103%	31.6%	5.7	4.2	2.7	3.5	102%	89.2%	102%	88.1%	52.2%	4.4
Nc1ncn([C@@H]2O[C@H](CO)[C@@H](O)[C@H]2O)c(=O)n1 [azacitidine]	1.98 µM	> 10 µM			97.3%	102%	95.9%	90.5%	37.3%	98%	102%	98.6%	102%	98.4%	87.3%	104%	96.1%	90.1%	67.9%	97.9%	99.7%	95.9%	94.1%	57.8%	5	0	2.6	3.1	102%	90.9%	88.5%	87.2%	64%	3.5
